# Earlier results as cited in patent US20070072813A1, “Methods for preventing and treating metabolic disorders and new pyrazole-O-glycoside derivatives” (priority 2005, published 2007).
# Conditions: metformin on its own, in the diabetic
smiles,measurement,value
CN(C)C(=N)N=C(N)N [metformin],average improvement in the HbA1c value,1.0-1.5%
